pIC50: −log10 of the molar value.

For one assay, the target named is T1, gelatinase-A (MMP-2) (Homo sapiens, UniProt P08253).
T1 construct: Recombinant active gelatinase-A (MMP-2) is purchased from Oncogene Research; purchased Oncogene Research
T1 sequence (P08253 110-660): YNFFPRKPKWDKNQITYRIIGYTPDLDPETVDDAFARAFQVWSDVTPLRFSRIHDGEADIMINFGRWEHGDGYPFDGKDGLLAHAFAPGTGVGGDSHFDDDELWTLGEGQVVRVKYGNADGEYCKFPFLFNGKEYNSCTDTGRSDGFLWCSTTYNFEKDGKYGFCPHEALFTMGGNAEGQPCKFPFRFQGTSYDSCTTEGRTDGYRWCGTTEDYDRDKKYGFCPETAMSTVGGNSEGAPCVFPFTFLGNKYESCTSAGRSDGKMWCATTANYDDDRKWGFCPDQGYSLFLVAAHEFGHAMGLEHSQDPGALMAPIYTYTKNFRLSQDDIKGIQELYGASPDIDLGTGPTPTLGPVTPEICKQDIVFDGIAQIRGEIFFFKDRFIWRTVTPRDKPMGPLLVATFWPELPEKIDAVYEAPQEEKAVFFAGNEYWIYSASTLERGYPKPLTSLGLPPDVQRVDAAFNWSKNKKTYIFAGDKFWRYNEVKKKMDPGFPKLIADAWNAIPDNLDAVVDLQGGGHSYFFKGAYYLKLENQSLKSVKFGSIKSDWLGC
Put plainly: Inhibition of Gelatinase A (MMP-2), cleavage of a fluorescent substrate. In kind it is biochemical. The following applies: Table 2; recombinant active gelatinase-A (MMP-2), pH 7.4, 40 min assay at ambient temperature. As for the experimental part:
The efficacy of the compounds of this invention as matrix metalloproteinase inhibitors was also determined by measuring inhibition as outlined below for Gelatinase A, a member of this family of enzymes. Recombinant active gelatinase-A (MMP-2) is purchased from Oncogene Research. The enzyme is assayed by its cleavage of a fluorescent […] 150 uL volume in a microfluor plate as described in Science 1990, 247, 954-958. Upon cleavage of the substrate, the fluorescence of the EDANS group is increased 30-fold, and this increase is monitored using a f-max (Molecular Devices) fluorescent plate reader (ex: 335 nm; em: 485 nm). The rates of cleavage of the substrate by gelatinase-A in the presence or absence of inhibitors are measured in a 40 min assay at ambient temperature. Stock solutions of the compounds in DMSO are prepared, and these solutions are diluted into the assay buffer (50 mM Tris HCl, pH 7.4, with 150 mM NaCl and 10 mM CaCl2), which is also used for dilution of the enzyme and substrate.

The next assay addresses T2, stromelysin (Homo sapiens, UniProt P08254).
T2 construct: made in house; host or cells: E. coli
Put plainly: Determination of Stromelysin Inhibition (cleavage of thiopeptide ester substrate, DTNB, 405 nm). In kind it is biochemical. As to conditions: Table 1; recombinant truncated human stromelysin, pH 6.5, 30 minute assay at ambient temperature. As for the experimental part:
The efficacy of the compounds of this invention as matrix metalloproteinase inhibitors was determined by measuring the inhibition of stromelysin. The inhibition of stromelysin by the compounds of this invention was determined as follows: Recombinant truncated stromelysin (human sequence) produced in E. coli was prepared by expression and purification of the protein as described by Ye et al. (Biochemistry, 1992, 31, 11231-11235, which is incorporated herein by reference). The enzyme was assayed by its cleavage of the thiopeptide ester substrate Ac-Pro-Leu-Gly-(2-mercapto-4-methyl-pentanoyl)-Leu-Gly-OEt as described by Weingarten and Feder (Anal. Biochem., 1985, 147, 437-440 (1985), which is incorporated herein by reference) as a substrate of vertebrate collagenase. The reported conditions were modified to allow assays to be carried out in a microtiter plate. Upon hydrolysis of the thioester bond, the released thiol group reacted rapidly with 5,5'-dithio-bis(2-nitrobenzoic acid) (DTNB) to produce a yellow color which was measured by a microtiter plate reader set at 405 nm. The rates of cleavage of the substrate by stromelysin in the presence or absence of inhibitors were measured in a 30 minute assay at ambient temperature. Solutions of the compounds in DMSO were prepared, and these were diluted at various concentrations into the assay buffer (50 mM MES/NaOH pH 6.5 with 10 mM CaCl2 and 0.2% Pluronic F-68), which was also used for dilution of the enzyme and substrate. The potency of the compounds (IC50) was calculated from the inhibition/inhibitor concentration data.

T2 sequence (P08254 100-272 limits assumed): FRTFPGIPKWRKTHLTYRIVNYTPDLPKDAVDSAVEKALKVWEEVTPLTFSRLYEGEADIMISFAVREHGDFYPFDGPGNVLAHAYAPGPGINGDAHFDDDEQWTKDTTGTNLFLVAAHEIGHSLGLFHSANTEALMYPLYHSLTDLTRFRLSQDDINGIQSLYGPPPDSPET

Turning to `CC(C)(CN(O)C=O)CS(=O)(=O)c1ccc(Oc2ccc(OC(F)(F)F)cc2)cc1` [Example 131, 2,2-dimethyl-3-((4-(4-(trifluoromethoxy)phenoxy)phenyl)sulfonyl)propyl(hydroxy)formamide], the pIC50 (commonly the IC50 on a negative log10 scale, so that one unit is a factor of ten) at gelatinase-A (MMP-2) is 8.31.

Regarding `CN1C(=O)N(C[C@@H](CCS(=O)(=O)c2ccc(Oc3ccc(F)cc3)cc2)N(O)C=O)C(=O)C1(C)C` [Example 132, (1R)-3-((4-(4-fluorophenoxy)phenyl)sulfonyl)-1-((3,4,4-trimethyl-2,5-dioxo-1-imidazolidinyl)methyl)propyl(hydroxy)formamide], at gelatinase-A (MMP-2), the pIC50 is 7.82.

For the compound `CC1(C)NC(=O)N(C[C@@H](CCS(=O)(=O)c2ccc(Oc3ccc(Cl)cc3)cc2)N(O)C=O)C1=O` [Example 130], the pIC50 on gelatinase-A (MMP-2) was 7.92.

For `O=CN(O)C1CCCCC1CS(=O)(=O)c1ccc(Oc2ccc(F)cc2)cc1` (racemic) [Example 134, (±)-2-(((4-(4-fluorophenoxy)phenyl)sulfonyl)methyl)cyclohexyl(hydroxy)formamide], the negative logarithm of the IC50 (pIC50) on gelatinase-A (MMP-2) was 6.92.

Turning to `CC(CCS(=O)(=O)c1ccc(Oc2ccccc2)cc1)N(O)C=O` (racemic) [Example 120, (±)-N-hydroxy-N-(1-methyl-3-((4-phenoxyphenyl)sulfonyl)propyl)formamide], on stromelysin, the pIC50 is 8.37.

`CC(C)(CN(O)C=O)CS(=O)(=O)c1ccc(Oc2ccccc2)cc1` [Example 129, 2,2-dimethyl-3-((4-phenoxyphenyl)sulfonyl)propyl(hydroxy)formamide]: the negative-log IC50 (pIC50) at gelatinase-A (MMP-2) is 8.37.

Turning to `O=CN(O)CC1(CS(=O)(=O)c2ccc(Oc3ccc(OC(F)(F)F)cc3)cc2)COCOC1` [Example 135, Hydroxy((5-(((4-(4-(trifluoromethoxy)phenoxy)phenyl)sulfonyl)methyl)-1,3-dioxan-5-yl)methyl)formamide], on gelatinase-A (MMP-2), the negative-log IC50 (pIC50) was 9.22.

On to `CC(CCS(=O)(=O)c1ccc(Oc2ccc(OC(F)(F)F)cc2)cc1)N(O)C=O` (racemic) [Example 121, (±)-N-hydroxy-N-(1-methyl-3-((4-(4-(trifluoromethoxy)phenoxy)phenyl)-sulfonyl)propyl)formamide], for which, at stromelysin, the negative logarithm of the IC50 (pIC50) was 6.89.

For the compound `CC1(C)NC(=O)N(C[C@@H](CCS(=O)(=O)c2ccc(Oc3ccccc3)cc2)N(O)C=O)C1=O` [Example 123, (R)-N-(1-((4,4-dimethyl-2,5-dioxo-1-imidazolidinyl)methyl)-3-((4-phenoxyphenyl)sulfonyl)propyl)-N-hydroxyformamide], the pIC50 at stromelysin is 6.57.

These data come from patent US6235786A, “Reverse hydroxamate inhibitors of matrix metalloproteinases” (Abbott Laboratories, priority 2000, dated 2001).
